Data: PubChem BioAssay AID2060496 (Molecular Pharmacology Branch, DTP, NCI, 2025)

System: 276233-004-R-J1-PDC complex spheroid viability
Experiment: Anticancer human tumor 276233-004-R-J1-PDC patient-derived colon adenocarcinoma cell line growth inhibition [GQUAD]
Settings: for IC50: curve of first compound; for viability, T/C: stronger effect = lower value
Method in brief: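 Tumor cells were grown as complex spheroids with HUVEC endothelial cells and mesenchymal stem cells as stroma. G-quadruplex stabilizers were combined with targeted agents over half-log dilutions from near the clinical Cmax, or from 10 microM.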

[1] = second compound 0.0316 µM, first compound 0.0316 µM
[2] = second compound 0.0316 µM, first compound 0.1 µM
[3] = second compound 0.0316 µM, first compound 0.316 µM
[4] = second compound 0.0316 µM, first compound 1 µM
[5] = second compound 0.0316 µM, first compound 3.16 µM
[6] = second compound 0.0316 µM, first compound 10 µM
[7] = second compound 0.1 µM, first compound 0.0316 µM
[8] = second compound 0.1 µM, first compound 0.1 µM
[9] = second compound 0.1 µM, first compound 0.316 µM
[10] = second compound 0.1 µM, first compound 1 µM
[11] = second compound 0.1 µM, first compound 3.16 µM
[12] = second compound 0.1 µM, first compound 10 µM
[13] = second compound 0.316 µM, first compound 0.0316 µM
[14] = second compound 0.316 µM, first compound 0.1 µM
[15] = second compound 0.316 µM, first compound 0.316 µM
[16] = second compound 0.316 µM, first compound 1 µM
[17] = second compound 0.316 µM, first compound 3.16 µM
[18] = second compound 0.316 µM, first compound 10 µM
[19] = second compound 1 µM, first compound 0.0316 µM
[20] = second compound 1 µM, first compound 0.1 µM
[21] = second compound 1 µM, first compound 0.316 µM
[22] = second compound 1 µM, first compound 1 µM
[23] = second compound 1 µM, first compound 3.16 µM
[24] = second compound 1 µM, first compound 10 µM
[25] = second compound 3.16 µM, first compound 0.0316 µM
[26] = second compound 3.16 µM, first compound 0.1 µM
[27] = second compound 3.16 µM, first compound 0.316 µM
[28] = second compound 3.16 µM, first compound 1 µM
[29] = second compound 3.16 µM, first compound 3.16 µM
[30] = second compound 3.16 µM, first compound 10 µM
[31] = second compound 10 µM, first compound 0.0316 µM
[32] = second compound 10 µM, first compound 0.1 µM
[33] = second compound 10 µM, first compound 0.316 µM
[34] = second compound 10 µM, first compound 1 µM
[35] = second compound 10 µM, first compound 3.16 µM
[36] = second compound 10 µM, first compound 10 µM
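Also: spheroids exposed to drugs for seven days.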
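For viability, T/C in this document: 100% = DMSO vehicle control viability.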

For `COc1cccc2c1C(=O)c1c(O)c3c(c(O)c1C2=O)CC(O)(C(=O)CO)CC3OC1CC(N)C(O)C(C)O1` (stereo not drawn) + Cc1[nH]c2ccc(F)cc2c1-c1nc2c3cccnc3c3ncccc3c2[nH]1, the IC50 (second compound 0.0316 µM) was 2.48 µM, the IC50 (second compound 0.1 µM) was 4.57 µM and the IC50 (second compound 0.316 µM) was 3.27 µM. It also gave an IC50 (second compound 1 µM) of 3.6 µM, an IC50 (second compound 3.16 µM) of 0.415 µM and an IC50 (second compound 10 µM) of less than 0.0316 µM. It also gave a viability, T/C [1] of 79.4%, a viability, T/C [2] of 79.9% and a viability, T/C [3] of 108%. For the same compound, the viability, T/C [4] was 64.9%, the viability, T/C [5] was 53% and the viability, T/C [6] was 39%. The viability, T/C [7] was 82.6%, the viability, T/C [8] was 96.3% and the viability, T/C [9] was 75.3%. The viability, T/C [10] was 89.1%, the viability, T/C [11] was 54.2% and the viability, T/C [12] was 40.9%. It also gave a viability, T/C [13] of 82.6%, a viability, T/C [14] of 82.6% and a viability, T/C [15] of 81.3%. The viability, T/C [16] was 77.2%, the viability, T/C [17] was 50.5% and the viability, T/C [18] was 34.2%. It also gave a viability, T/C [19] of 57.2%, a viability, T/C [20] of 78.3% and a viability, T/C [21] of 70.1%. It also gave a viability, T/C [22] of 70.9%, a viability, T/C [23] of 52.1% and a viability, T/C [24] of 33.8%. For the same compound, the viability, T/C [25] was 50.7%, the viability, T/C [26] was 63.5% and the viability, T/C [27] was 52.3%. The viability, T/C [28] was 41.4%, the viability, T/C [29] was 43.3% and the viability, T/C [30] was 35.7%. For the same compound, the viability, T/C [31] was 50%, the viability, T/C [32] was 44.4% and the viability, T/C [33] was 49.1%. It also gave a viability, T/C [34] of 47.6%, a viability, T/C [35] of 39.7% and a viability, T/C [36] of 27.6%.
Compound `Cn1ncnc1[C@H]1c2n[nH]c(=O)c3cc(F)cc(c23)N[C@@H]1c1ccc(F)cc1` + Cc1[nH]c2ccc(F)cc2c1-c1nc2c3cccnc3c3ncccc3c2[nH]1 has an IC50 (second compound 0.0316 µM) greater than 0.316 µM, an IC50 (second compound 0.1 µM) greater than 0.316 µM and an IC50 (second compound 0.316 µM) greater than 0.316 µM. For the same compound, the IC50 (second compound 1 µM) was greater than 0.316 µM, the IC50 (second compound 3.16 µM) was greater than 0.316 µM and the IC50 (second compound 10 µM) was less than 0.000999 µM. The viability, T/C (second compound 0.0316 µM, first compound 0.000999 µM) was 89%, the viability, T/C (second compound 0.0316 µM, first compound 0.00316 µM) was 99.2% and the viability, T/C (second compound 0.0316 µM, first compound 0.00999 µM) was 104%. It also gave a viability, T/C [1] of 94.1%, a viability, T/C (second compound 0.0316 µM, first compound 0.0999 µM) of 95.6% and a viability, T/C [3] of 90.7%. The viability, T/C (second compound 0.1 µM, first compound 0.000999 µM) was 91.2%, the viability, T/C (second compound 0.1 µM, first compound 0.00316 µM) was 97.8% and the viability, T/C (second compound 0.1 µM, first compound 0.00999 µM) was 99.9%. The viability, T/C [7] was 88.5%, the viability, T/C (second compound 0.1 µM, first compound 0.0999 µM) was 98% and the viability, T/C [9] was 94.8%. For the same compound, the viability, T/C (second compound 0.316 µM, first compound 0.000999 µM) was 94.7%, the viability, T/C (second compound 0.316 µM, first compound 0.00316 µM) was 79.9% and the viability, T/C (second compound 0.316 µM, first compound 0.00999 µM) was 86.6%. For the same compound, the viability, T/C [13] was 99.2%, the viability, T/C (second compound 0.316 µM, first compound 0.0999 µM) was 100% and the viability, T/C [15] was 93%. For the same compound, the viability, T/C (second compound 1 µM, first compound 0.000999 µM) was 63.5%, the viability, T/C (second compound 1 µM, first compound 0.00316 µM) was 66.6% and the viability, T/C (second compound 1 µM, first compound 0.00999 µM) was 78.7%. It also gave a viability, T/C [19] of 72.7%, a viability, T/C (second compound 1 µM, first compound 0.0999 µM) of 70.6% and a viability, T/C [21] of 84.7%. For the same compound, the viability, T/C (second compound 3.16 µM, first compound 0.000999 µM) was 56.3%, the viability, T/C (second compound 3.16 µM, first compound 0.00316 µM) was 66.5% and the viability, T/C (second compound 3.16 µM, first compound 0.00999 µM) was 49.2%. For the same compound, the viability, T/C [25] was 54.2%, the viability, T/C (second compound 3.16 µM, first compound 0.0999 µM) was 60.4% and the viability, T/C [27] was 57.4%. It also gave a viability, T/C (second compound 10 µM, first compound 0.000999 µM) of 50.3%, a viability, T/C (second compound 10 µM, first compound 0.00316 µM) of 47.3% and a viability, T/C (second compound 10 µM, first compound 0.00999 µM) of 50.5%. For the same compound, the viability, T/C [31] was 62.7%, the viability, T/C (second compound 10 µM, first compound 0.0999 µM) was 62% and the viability, T/C [33] was 44.2%.
`Nc1ccn(C2OC(CO)C(O)C2(F)F)c(=O)n1` (stereo not drawn) + Cc1[nH]c2ccc(F)cc2c1-c1nc2c3cccnc3c3ncccc3c2[nH]1 was tested, and the IC50 (second compound 0.0316 µM) was greater than 10 µM, the IC50 (second compound 0.1 µM) was greater than 10 µM and the IC50 (second compound 0.316 µM) was greater than 10 µM. For the same compound, the IC50 (second compound 1 µM) was greater than 10 µM, the IC50 (second compound 3.16 µM) was less than 0.0316 µM and the IC50 (second compound 10 µM) was less than 0.0316 µM. The viability, T/C [1] was 102%, the viability, T/C [2] was 74.9% and the viability, T/C [3] was 74.1%. The viability, T/C [4] was 71%, the viability, T/C [5] was 66.2% and the viability, T/C [6] was 78.4%. It also gave a viability, T/C [7] of 72.1%, a viability, T/C [8] of 88.4% and a viability, T/C [9] of 61.7%. For the same compound, the viability, T/C [10] was 76.3%, the viability, T/C [11] was 82.9% and the viability, T/C [12] was 67.8%. It also gave a viability, T/C [13] of 67%, a viability, T/C [14] of 74.8% and a viability, T/C [15] of 79.4%. The viability, T/C [16] was 73%, the viability, T/C [17] was 83.2% and the viability, T/C [18] was 63.6%. The viability, T/C [19] was 65%, the viability, T/C [20] was 58.5% and the viability, T/C [21] was 68.8%. It also gave a viability, T/C [22] of 76.7%, a viability, T/C [23] of 65.8% and a viability, T/C [24] of 64.8%. The viability, T/C [25] was 53.8%, the viability, T/C [26] was 42% and the viability, T/C [27] was 50.6%. It also gave a viability, T/C [28] of 50.1%, a viability, T/C [29] of 51.9% and a viability, T/C [30] of 59.3%. It also gave a viability, T/C [31] of 39.7%, a viability, T/C [32] of 43% and a viability, T/C [33] of 43.4%. For the same compound, the viability, T/C [34] was 40.2%, the viability, T/C [35] was 42.2% and the viability, T/C [36] was 40%.
`O=c1[nH]cc(F)c(=O)[nH]1` + Cc1[nH]c2ccc(F)cc2c1-c1nc2c3cccnc3c3ncccc3c2[nH]1 was tested, and the IC50 (second compound 0.0316 µM) was greater than 10 µM, the IC50 (second compound 0.1 µM) was greater than 10 µM and the IC50 (second compound 0.316 µM) was greater than 10 µM. For the same compound, the IC50 (second compound 1 µM) was greater than 10 µM, the IC50 (second compound 3.16 µM) was greater than 10 µM and the IC50 (second compound 10 µM) was less than 0.0316 µM. It also gave a viability, T/C [1] of 71.4%, a viability, T/C [2] of 85.6% and a viability, T/C [3] of 92.9%. It also gave a viability, T/C [4] of 76.8%, a viability, T/C [5] of 77.5% and a viability, T/C [6] of 100%. The viability, T/C [7] was 79.3%, the viability, T/C [8] was 97.2% and the viability, T/C [9] was 88.9%. For the same compound, the viability, T/C [10] was 82.7%, the viability, T/C [11] was 83% and the viability, T/C [12] was 80%. The viability, T/C [13] was 75.7%, the viability, T/C [14] was 91.2% and the viability, T/C [15] was 80.4%. It also gave a viability, T/C [16] of 94%, a viability, T/C [17] of 74.5% and a viability, T/C [18] of 85.3%. The viability, T/C [19] was 57.3%, the viability, T/C [20] was 63% and the viability, T/C [21] was 73.1%. For the same compound, the viability, T/C [22] was 65.6%, the viability, T/C [23] was 70.8% and the viability, T/C [24] was 73.3%. For the same compound, the viability, T/C [25] was 54.6%, the viability, T/C [26] was 49.9% and the viability, T/C [27] was 48.5%. For the same compound, the viability, T/C [28] was 48%, the viability, T/C [29] was 53.8% and the viability, T/C [30] was 51.9%. The viability, T/C [31] was 41.2%, the viability, T/C [32] was 46.7% and the viability, T/C [33] was 43.2%. For the same compound, the viability, T/C [34] was 44.5%, the viability, T/C [35] was 45.3% and the viability, T/C [36] was 42.9%.
